Experimental data published in patent publication US11419843B2, “Small molecule BCL-2 functional converters as cancer therapeutics” (Oregon State University, priority 2016, dated 2022).

Tests used:
[1] = tested on: paclitaxel resistant H460 cells; experiment: Zebrafish xenograft model; format: in vivo, Zebrafish (Danio rerio); details: 1 to 4 days post injection
Protocol: Total area signifies total h460 cell area in zebrafish.
Zebrafish (Danio rerio) were housed at the Sinnhuber Aquatic Research Laboratory at Oregon State University in accordance with Institutional Animal Care and Use Committee protocols. Adult 5D Tropical zebrafish were maintained under standard laboratory conditions of 28±1° C. on a 14 hr light/10 hr dark photoperiod in fish water consisting of reverse osmosis water supplemented with a commercially available salt solution (0.6%, Instant Ocean, UnitedPet Group, Inc., Blacksburg, Va., USA). Collected eggs were staged according to Kimmel et al. At 24 hours post fertilization (hpf), zebrafish embryos were maintained in E3 media with phenylthiourea (0.003%, Sigma, USA).
For transplantations, H460 cells were labeled with a CM-DiI dye (Thermo Fisher Sci.) according to the manufacturer's protocol and suspended to a concentration of 2×10^7 cells/mL. […]
For imaging, zebrafish xenografts were anesthetized by emersion in 0.2 mg/mL Tricaine E3 media and imbedded in 0.8% (w/v) low melting point agarose on a glass bottom 96-well plate. […] H460 cancer growth was analyzed using Fiji (Fiji is Just Imagej) software. […] Cancer area was calculated by creating a binary mask from thresholds with the Otsu algorithm and calculating the total area of the resulting segmented objects. […]

Bcl-2 loop domain = Bcl-2 loop domain (Homo sapiens, UniProt P10415); experiment: NMR titration of 15N-13C labeled Bcl-2 loop domain (HSQC chemical shift perturbation); details: for Kd: 0.2 mM Bcl-2 loop titrated with 0.2-5.4 mM MTX
[2] = tested on: MDA-MB-231 cells with or without Bcl-2 expression vector; experiment: Transwell matrigel invasion assay; format: cell-based, human; details: 10 μM, 16 h
Protocol: FIG. 10F is MDA-MB231 cells with or without Bcl-2 expression vector were treated with 10 μM MTX or vehicle in a matrigel invasion chamber for 16 h and the membrane was then fixed, stained and number of cells invaded counted.
Invasion assay was performed using BD transwell invasion assay kit. MDA-MB-231 cells were treated for 16 h at 10 μM concentration and membrane was stained with prolong anti-fade DAPI stain and number of cells invaded were counted under a fluorescent microscope.

WT and Bcl-2−/− MEFs = experiment: Viability of WT and Bcl-2-/- MEFs; format: cell-based, mouse; details: indicated concentrations, 10% FBS
Protocol: FIG. 9E depicts effect of methotrexate in certain cancer cell types. Left Panel: Bcl-2 levels in WT and Bcl-2−/− MEFs. Right panel: MEF cells were exposed to indicated concentrations of Methotrexate in medium containing 10% FBS and viability was determined by cell titer glo assay.
Cell viability was determined using CellTiter Glo Luminescent Cell Viability Assay (Promega, Madison, Wis.) as per manufacturer instructions. DAPI stain was used to assess apoptosis. Colony forming assays were performed as described previously.

[3] = low dose; cited from earlier work
[4] = tested on: MDA-MB-468 parental and derived paclitaxel or doxorubicin resistant cells; experiment: Viability of MDA-MB-468 parental and derived resistant cells; format: cell-based, human
Protocol: Percentage viability relative to vehicle treatment. Representative of three independent assays in triplicate.
Percentage viability relative to vehicle treatment.
Percentage viability relative to vehicle treatment. Representative of three independent assays conducted in triplicate.
Cells of interest were plated at 2000 cells per well in 96-well black tissue culture plate and allowed to adhere to the plate overnight. Viability assays were performed using 10% serum medium unless otherwise stated. Drugs were diluted in supplemented tissue culture medium and added at increasing concentrations, with DMSO as a vehicle control. Cells were then incubated for either 48 hour or 72 hours in presence of the compound, Promega Titer Glo was added to the wells at the assay end point according to manufacturer's protocol. Luminescence was measured using Tropix TR717 Microplate luminometer. Percentage of viable cells is relative to vehicle (100%). As a complementary viability assay, eBioscience Fixable Viability Dye eFluor 660(65-0864) was used to stain dead cells and analyzed using flow cytometry.

Sequence of Bcl-2 loop domain (P10415 29-90 limits assumed): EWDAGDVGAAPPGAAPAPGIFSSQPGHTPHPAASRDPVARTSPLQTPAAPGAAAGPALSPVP

| SMILES | Growth of paclitaxel resistant H460 cells in zebrafish [1] | Chemical shift perturbations of Bcl-2 loop domain upon titration (Bcl-2 loop domain; 15N-1H HSQC) | Hill coefficient, His55 (Bcl-2 loop domain; Hill model fit) | Hill coefficient, His58 (Bcl-2 loop domain; Hill model fit) | Kd (Bcl-2 loop domain; Kd from chemical shift perturbation of His55, Hill model fit) | Kd (Bcl-2 loop domain; Kd from chemical shift perturbation of His58, Hill model fit) | Invasive potential of Bcl-2 over-expressing cells vs vector controls [2] | Bcl-2 dependent induction of apoptosis in MEFs with or without Bcl-2 (WT and Bcl-2−/− MEFs) | bioavailability [3] | Viability of MDA-MB-468 doxorubicin resistant cells ([4]; 72 hour treatment) | Viability of MDA-MB-468 paclitaxel resistant vs parental cells ([4]; 72 hours) |
| --- | --- | --- | --- | --- | --- | --- | --- | --- | --- | --- | --- |
| CN(Cc1cnc2nc(N)nc(N)c2n1)c1ccc(C(=O)N[C@@H](CCC(=O)O)C(=O)O)cc1 [MTX, (2S)-2-[[4-[(2,4 diaminopteridin-6-yl)methylmethylamino]benzoyl]amino] pentanedioc acid] | reduction in paclitaxel resistant H460 growth in vivo | residues 55-60 | 1.2 | 1.0 | 5.1 mM | 11.4 mM | inhibited the invasive potential of Bcl-2 over-expressing cells | Bcl-2 dependent induction of apoptosis by MTX was also seen in mouse embryonic fibroblast cells with or without Bcl-2 | ≤ 70% | – | – |
| CCOc1ccccc1NC(=O)c1cc(Cl)ccc1NC(=O)c1ccc(OC)cc1 [BFC1108, 5-chloro-N-(2-ethoxyphenyl)-2-[(4-methoxybenzoyl)amino]-benzamide] | – | – | – | – | – | – | – | – | – | reduced viability of doxorubicin resistant cells | preferentially killed by BFC1108 in a dose dependent manner |
